In patent publication US20110160121A1, “UNACYLATED GHRELIN AND ANALOGS AS THERAPEUTIC AGENTS FOR VASCULAR REMODELING IN DIABETIC PATIENTS AND TREATMENT OF CARDIOVASCULAR DISEASE” (ALIZE PHARMA SAS, priority 2008, published 2011):
Where no end group is shown, it is not given here.

Key:
cardiomyocytes = settings: Ref. 8; cited from earlier work
CAC membranes = experiment: Competition binding with [125I-Tyr4]-UAG on CAC membranes; set-up: species or system human; settings: 100 nM competitor, 0.25 nM radioligand; FIG. 5A
Description: The specific binding of [^125I-Tyr^4]-UAG (calculated as difference between binding in the absence, control, and in the presence of UAG) represented about 75% of the control value (P<0.001) and was detected either on fresh (0.25 and 0.26 fmol) or frozen-thawed (0.20 and 0.33 fmol) CAC membranes from two different cell preparations.

CAC [1] = experiment: Matrigel-plug assay: de novo vessel formation by CAC from diabetic patients in SCID mice; assay type: in vivo, human
Method: To evaluate whether CAC recovered from UAG-treated diabetic patients rescue their vasculogenic capability, de novo vessel formation was assayed in vivo. To this end, Matrigel plugs containing IL-3 and CSFE-labelled CAC, recovered from untreated or UAG-treated patients, were injected into SCID mice, 15 days after injection Matrigel plugs were recovered and analyzed by immunohistochemistry. […] On the contrary no functional vessels could be detected when CAC recovered from untreated patients were used (FIG. 4E, panel a (left)). To exclude the possibility that the neo-vessels derived from vasculogenic cells of host origin, immunofluorescence assay was performed using the anti-human HLA Class I and the anti-mouse MHC II antibodies.
Matrigel-plug assay—For murine angiogenesis assay, untreated or UAG-treated CAC, obtained from type 2 diabetic patients, were counted and resuspended in DMEM (4×10^6 in 250 μL DMEM). […]
Immunohistochemistry and immunofluorescence—For immunohistochemistry, sections from paraffin-embedded blocks of Matrigel plugs were collected onto poly-lysine-coated slides. […] The percentage of positive cells was counted in 4 non-sequential sections for each experiment at ×40 magnification. […] The number of MHC II or HLA I positive vessels was determined by counting 10 randomly selected fields in three different samples.

CAC [2] = experiment: CAC cell-cycle progression (percentage of cells in S phase, FACS); assay type: cell-based, human; settings: cultured CAC; effect still evident after 7 days of culture; FIG. 1A
Method: First, cell-cycle progression in response to UAG and AG was evaluated. […] To investigate whether this effect relies on inhibition of baseline ROS production, DCF-DA assay was performed. […] H2O2 was used as positive control. AGE-mediated damage signals mainly rely on ROS production (Ref. 29). […] Isolation and Culture of CAC from Peripheral Blood Mononuclear Cells—Peripheral-blood mononuclear cells (PB-MNC) isolated by Fycoll Histopaque 1077 (Sigma) were resuspended in 20% FBS 199 Medium and plated on fibronectin-coated dishes (Biocoat, Becton Dickinson Labware) as described by Hill et al. (Ref. 19). Human UAG studies were performed on CAC recovered from normal donors and diabetic patients. The purity of sorted cells was assessed by FACS analysis (Ref. 20). For experiments, the isolated CAC were cultured under 5% CO2 at 37° C. for 4 days on 20 μg/ml fibronectin-coated dishes in EGM-2 medium containing 10% FBS, hydrocortisone, human Fibroblast Growth Factor, Vascular Endothelial Growth Factor, Insulin Growth Factor 1, ascorbic acid, human Epidermal Growth Factor, gentamicin and amphotericin-B (Cambrex, Walkersville, Md., USA) alone or in combination with 1 μM UAG and 1.2 mg/ml AGE. […] Cell surface molecules were evaluated by flow cytometry as previously described (Ref. 24). Frequency of marker-positive cells is expressed as mean±standard deviation (SD).

CAC [3] = experiment: CAC mobilization assay in diabetic mice (NOD/SCID, ob/ob); assay type: in vivo, mouse; settings: FIG. 4B
Method: To further confirm data obtained by treating patients and healthy controls with UAG, two different mouse models of diabetes were used. NOD/SCID mice and ob/ob mice were treated for different time intervals with saline or UAG. The person skilled in the art will be familiar with the NOD/SCID mice and ob/ob mice models.
After treatment, cells were recovered, assayed by FACS analysis, counted and cultured. […] Black lines refer to preimmune IgG used as negative control and grey lines refer to surface marker expression. Similar results were obtained when CAC from untreated diabetic mice as well as untreated or treated wild-type mice were analyzed (data not shown).
Diabetic and control mice—Mice were divided in four groups. The plasma glucose and insulin determination for each group are reported. Sixteen 6 weeks old ob/ob mice (blood glucose, 600±45 mg/dL, insulin, 5.5±0.9 ng/ml); sixteen C56BL6/J wild type mice (blood glucose, 150±18.2 mg/dL, insulin, 1±0.05 ng/ml); ten 7 weeks old NOD/SCID mice (blood glucose, 164±12.9 mg/dL, insulin 1.2±.0.12 ng/ml); ten 17 weeks old NOD/SCID mice (blood glucose, 536±36.3 mg/dL, insulin 4.85±0.74 ng/ml). Animal procedures conformed to the Guide for Care and Use of […] (National Institutes of Health publication no. […], revised 1985).
Mobilization assay—Mice were treated for 12 hours with UAG or saline. CAC recovered and purified as above described, were put in culture and counted by three independent investigators. The technical ratio of CAC was calculated by comparing the numbers of CAC/μL of blood drawn from left ventricular.

GHSR-1a = GHSR-1a (Homo sapiens, UniProt Q92847); settings: Ref. 7; cited from earlier work
GHSR-1a, sequence (Q92847 whole entry): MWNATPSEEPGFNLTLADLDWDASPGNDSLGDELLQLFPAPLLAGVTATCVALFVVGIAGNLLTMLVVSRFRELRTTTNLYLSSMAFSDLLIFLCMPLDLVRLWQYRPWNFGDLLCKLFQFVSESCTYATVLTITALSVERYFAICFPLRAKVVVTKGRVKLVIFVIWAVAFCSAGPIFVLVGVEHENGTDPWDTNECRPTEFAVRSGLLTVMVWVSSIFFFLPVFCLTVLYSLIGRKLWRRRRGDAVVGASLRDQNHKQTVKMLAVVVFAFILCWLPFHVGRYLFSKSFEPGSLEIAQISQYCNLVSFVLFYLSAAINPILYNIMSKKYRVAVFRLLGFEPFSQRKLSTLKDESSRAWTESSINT

In the case of “1-NH2Gly-Ser-Ser-Phe-Leu-Ser-Pro-Glu-His-Gln-Arg-Val-Gln-Gln-Arg-Lys-Glu-Ser-Lys-Lys-Pro-Pro-Ala-Lys-Leu-Gln-Pro-Arg-28 (H-GSSFLSPEHQRVQQRKESKKPPAKLQPR; ends and bridges not checked; listed as Homo sapiens) [UAG]”, the “inhibition of experimentally-induced cell death” value (cardiomyocytes) is listed as “inhibit experimentally-induced cell death”, the “inhibition of binding of [125I-Tyr4]-UAG to CAC membranes” value (CAC membranes) is listed as “inhibited” and the “de novo formation of functional vessels” value (CAC [1]; CSFE-labelled CAC from UAG-treated diabetic patients, Matrigel plugs with IL-3 in SCID mice, 15 days, FIG. 4E) is listed as “formed functional vessels”. The “origin of vessels (human HLA Class I vs mouse MHC II)” value (CAC [1]; Matrigel plugs, immunofluorescence, FIG. 4F) was “majority of vessels are lined by human HLA Class I positive cells”, the “percentage of cells in S phase” value (CAC [2]) was “significant increase in the percentage of cells in S phase” and the “number of CAC relative to untreated wild type mice” value (CAC [3]; UAG-treated ob/ob mice vs untreated wild type mice) was “fully restores the number of CAC to normal physiological levels”. For the same substance, the “percentage of recovered cells (CAC)” value (CAC [3]; diabetic NOD/SCID mice) was “increase the percentage of recovered cells”, the “number of circulating CAC” value (CAC [3]; ob/ob mice) was “increased number of circulating CAC” and the “binding to GHSR-1a” value (GHSR-1a) was “fails to bind GHSR-1a”.
